From US6469026B2, “Isoquinolone inhibitors of factor Xa” (Millennium Pharmaceuticals, Inc., priority 2000, dated 2002)

Assays:
thrombin = molecular target: T1, thrombin (Homo sapiens, UniProt P00734); assay: thrombin amidolytic assay (IIA); assay type: biochemical; details: substrate Chromozym TH, 5 min preincubation, room temperature, pH 7.5
T1 construct: proteolytic cleavage of its precursor prothrombin at the Arg-Thr linkage at positions 271-272 and the Arg-Ile linkage at positions 320-321
Description: […] In the assays for thrombin, prothrombinase and factor Xa, a synthetic chromogenic substrate is added to a solution containing test compound and the enzyme of interest and the residual catalytic activity of that enzyme is detennined spectrophotometrically. The IC50 of a compound is determined from the substrate turnover. The IC50 is the concentration of test compound giving 50% inhibition of the substrate turnover.
(§1) The factor Xa and thrombin assays were performed at room temperature, in 0.02 M TrisHCl buffer, pH 7.5, containing 0.15 M NaCl. The rates of hydrolysis of the para-nitroanilide substrate S-2765 (Chromogenix) for factor Xa, and the substrate Chromozym TH (Boehringer Mannheim) for thrombin following preincubation of the enzyme with inhibitor for 5 minutes at room temperature, and were determined using the Softmax 96-well plate reader (Molecular Devices), monitored at 405 nm to measure the time dependent appearance of p-nitroaniline.

factor Xa = factor Xa (Homo sapiens, UniProt P00742); assay: factor Xa amidolytic assay (XA); assay type: biochemical; details: substrate S-2765, 5 min preincubation, room temperature, pH 7.5
Description: The compounds of the present invention are dissolved in buffer to give solutions containing concentrations such that assay concentrations range from 0 to 100 μM. In the assays for thrombin, prothrombinase and factor Xa, a synthetic chromogenic substrate is added to a solution containing test compound and the enzyme of interest and the residual catalytic activity of that enzyme is detennined spectrophotometrically. The IC50 of a compound is determined from the substrate turnover. The IC50 is the concentration of test compound giving 50% inhibition of the substrate turnover.
as §1

factor Xa, sequence (P00742 235-488 limits assumed): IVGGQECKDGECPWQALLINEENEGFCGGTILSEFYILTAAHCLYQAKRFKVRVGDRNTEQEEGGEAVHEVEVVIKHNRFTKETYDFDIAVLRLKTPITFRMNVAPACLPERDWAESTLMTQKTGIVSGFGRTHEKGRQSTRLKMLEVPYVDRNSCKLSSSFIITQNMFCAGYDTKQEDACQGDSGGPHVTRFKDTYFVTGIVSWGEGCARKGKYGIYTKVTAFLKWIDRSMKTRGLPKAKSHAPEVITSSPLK
factor Xa, sequence (P00742 41-179 partner limits assumed): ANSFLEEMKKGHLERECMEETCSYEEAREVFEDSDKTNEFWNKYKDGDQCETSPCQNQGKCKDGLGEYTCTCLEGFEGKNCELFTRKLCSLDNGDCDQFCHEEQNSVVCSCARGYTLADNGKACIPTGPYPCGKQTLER

| SMILES | IC50 (thrombin) | IC50 (factor Xa) |
| --- | --- | --- |
| CC(=N)N1CCC(Oc2ccc3c(c2)CCN(C(Cc2cccc(C(=N)N)c2)C(=O)NC(C)(C)C)C3=O)CC1 (centres unmarked) [Example 13] | 35.9 µM | 0.993 µM |
| CC(=N)N1CCC(Oc2ccc3c(c2)CCN(C(Cc2cccc(C(=N)N)c2)C(=O)O)C3=O)CC1 (centres unmarked) [Example 14] | – | 0.81 µM |
| N=C(N)c1cccc(CC(C(=O)O)N2CCc3cc(OC4CCN(C(=N)N)CC4)ccc3C2=O)c1 (centres unmarked) [Example 15] | – | 0.794 µM |
| COC(=O)C(Cc1ccc2ccc(C(=N)N)cc2c1)N1CCc2cc(OC3CCN(C(=N)N)CC3)ccc2C1=O (centres unmarked) [Example 16] | 228 µM | 0.693 µM |
| CC(=N)N1CCC(Oc2ccc3c(c2)CCN(C(Cc2ccc4ccc(C(=N)N)cc4c2)C(=O)O)C3=O)CC1 (centres unmarked) [Example 17] | – | 0.348 µM |
| N=C(N)c1ccc2ccc(CC(C(=O)O)N3CCc4cc(OC5CCN(C(=N)N)CC5)ccc4C3=O)cc2c1 (centres unmarked) [Example 18] | – | 0.282 µM |
| CC(=N)N1CCC(Oc2ccc3c(c2)CCN(C(Cc2ccc4ccc(C(=N)N)cc4c2)C(=O)OC(C)(C)C)C3=O)CC1 (centres unmarked) [Example 19] | 119 µM | 0.258 µM |
| CC(C)(C)OC(=O)C(Cc1ccc2ccc(C(=N)N)cc2c1)N1CCc2cc(OC3CCN(C(=N)N)CC3)ccc2C1=O (centres unmarked) [Example 20] | 101 µM | 0.168 µM |
| COC(=O)C(Cc1cccc(C(=N)N)c1)N1CCc2cc(OC3CCN(C(=N)N)CC3)ccc2C1=O (centres unmarked) [Example 21] | 402 µM | 0.152 µM |
| COC(=O)C(Cc1cccc(C(=N)N)c1)N1CCc2cc(OC3CCN(C(C)=N)CC3)ccc2C1=O (centres unmarked) [Example 22] | 393 µM | 0.129 µM |
| CC(C)(C)OC(=O)C(Cc1cccc(C(=N)N)c1)N1CCc2cc(OC3CCN(C(=N)N)CC3)ccc2C1=O (centres unmarked) [Example 23] | 233 µM | 0.0475 µM |
| CC(=N)N1CCC(Oc2ccc3c(c2)CCN(C(Cc2cccc(C(=N)N)c2)C(=O)OC(C)(C)C)C3=O)CC1 (centres unmarked) [Example 24] | 150 µM | 0.0221 µM |
